How the values were obtained:
BACE1 = BACE1 (Homo sapiens (Human), UniProt P56817); experiment: Cellular Aβ-lowering assay; format: cell-based; conditions: HEK293 cells stably expressing human APP wt (APP695); Aβ40 in supernatant by ELISA after 18-20 hrs
Protocol: Cellular Aβ-Lowering Assay: Human HEK293 cells which are stably transfected with a vector expressing a cDNA of the human APP wt gene (APP695) were used to assess the potency of the compounds in a cellular assay. The cells were seeded in 96-well microtiter plates in cell culture medium (Iscove, plus 10% (v/v) fetal bovine serum, glutamine, penicillin/streptomycin) to about 80% confluence and the compounds were added at a 10× concentration in 1/10 volume of medium without FCS containing 8% DMSO (final concentration of DMSO was kept at 0.8% v/v). After 18-20 hrs incubation at 37° C. and 5% CO2 in a humidified incubator the culture supernatant was harvested for the determination of Aβ40 concentrations. […] After blocking of non-specific binding sites with e.g. 1% BSA and washing, the culture supernatants were added in suitable dilutions together with a horseradish peroxidase-coupled Aβ detection antibody (e.g., antibody 4G8, Senetek, Maryland Heights, Mo.) and incubated for 5 to 7 hrs. Subsequently the wells of the microtiter plate were washed extensively with Tris-buffered saline containing 0.05% Tween 20 and the assay was developed with tetramethylbenzidine/H2O2 in citric acid buffer. After stopping the reaction with one volume […] the reaction was measured in an ELISA reader at 450 nm wavelength. The concentrations of Aβ in the culture supernatants were calculated from a standard curve obtained with known amounts of pure Aβ peptide.

BACE2 = BACE2 (Rattus norvegicus (Rat), UniProt Q6IE75); experiment: Assay for BACE inhibition by measuring cellular TMEM27 cleavage; format: cell-based; conditions: INS-TMEM27 (INS1e rat cell line, inducible hTMEM27); shed TMEM27 by ELISA
From the text: Assay for BACE Inhibition by Measuring Cellular TMEM27 Cleavage:
The assay uses the principle of inhibition of human TMEM27 cleavage by endogenous cellular BACE2 in the Ins1e rat cell line and shedding from the cell surface into the culture medium, followed by detection in an ELISA assay Inhibition of BACE2 prevents the cleavage and shedding in a dose-dependent manner.
The stable cell line “INS-TMEM27” represents an INS1e-derived cell line with inducible expression (using the TetOn system) of full-length hTMEM27 in a doxycycline-dependent manner. The cells are cultured throughout the experiment in RPMI1640+Glutamax (Invitrogen) Penicillin/Streptomycin, 10% Fetal bovine serum, […], […], 100 micrograms/ml G418 and 100 microgram/ml hygromycin and are grown inadherent culture at 37° C. in a standard CO2 cell culture incubator.
INS-TMEM27 cells are seeded in 96-well plates. After 2 days in culture, BACE2 inhibitor is added in a range of concentrations as required by the assay and after a further two hours, doxycycline is added to a final concentration of 500 ng/ml. The cells are incubated for a further 46 hours and the supernatant harvested for detection of shed TMEM27.
An ELISA assay (using a pair of mouse anti-human-TMEM27 antibodies, raised against the extracellular domain of TMEM27) is used for detection of TMEM27 in the culture medium. An EC50 for BACE2 inhibition is calculated using the ELISA readout for each inhibitor concentration with standard curve-fitting software such as XLFit for the Excel spreadsheet program.

Sequence of BACE2 (Q6IE75 63-514): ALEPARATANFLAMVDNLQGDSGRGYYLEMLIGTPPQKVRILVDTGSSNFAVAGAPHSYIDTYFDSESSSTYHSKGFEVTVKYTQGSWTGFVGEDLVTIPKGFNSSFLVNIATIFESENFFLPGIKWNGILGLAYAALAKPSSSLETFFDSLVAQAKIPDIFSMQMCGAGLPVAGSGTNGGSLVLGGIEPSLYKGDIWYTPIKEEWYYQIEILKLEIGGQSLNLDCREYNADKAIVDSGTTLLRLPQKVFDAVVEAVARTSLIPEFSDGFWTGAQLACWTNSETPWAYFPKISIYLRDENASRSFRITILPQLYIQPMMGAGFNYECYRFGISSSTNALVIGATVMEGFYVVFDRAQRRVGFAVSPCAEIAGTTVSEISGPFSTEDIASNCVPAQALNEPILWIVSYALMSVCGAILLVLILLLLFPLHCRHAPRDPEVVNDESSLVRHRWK
Sequence of BACE1 (P56817 46-501): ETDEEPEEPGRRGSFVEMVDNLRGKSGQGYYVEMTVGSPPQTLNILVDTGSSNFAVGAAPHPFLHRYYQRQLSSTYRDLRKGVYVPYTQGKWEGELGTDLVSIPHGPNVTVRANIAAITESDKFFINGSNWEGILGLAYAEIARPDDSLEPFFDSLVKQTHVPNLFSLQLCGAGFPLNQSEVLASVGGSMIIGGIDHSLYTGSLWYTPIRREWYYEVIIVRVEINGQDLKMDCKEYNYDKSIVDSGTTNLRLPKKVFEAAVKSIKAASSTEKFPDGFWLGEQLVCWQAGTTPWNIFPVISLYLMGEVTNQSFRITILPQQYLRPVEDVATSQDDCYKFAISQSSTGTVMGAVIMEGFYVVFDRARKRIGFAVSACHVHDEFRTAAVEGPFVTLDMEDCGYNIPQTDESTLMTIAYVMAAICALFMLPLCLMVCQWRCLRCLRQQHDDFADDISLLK

| Compound | IC50 (BACE1) [nM] | IC50 (BACE2) [nM] |
| --- | --- | --- |
| CC#CCOc1cnc(C(=O)Nc2ccc(F)c([C@@]3(C)N=C(N)OC[C@]3(C)F)c2)cn1 [Example 50, 5-But-2-ynyloxy-pyrazine-2-carboxylic acid [3-((4R,5R)-2-amino-5-fluoro-4,5-dimethyl-5,6-dihydro-4H-[1,3]oxazin-4-yl)-4-fluoro-phenyl]-amide] | 0.1 | – |
| C[C@]1(c2cc(NC(=O)c3ncc(C(F)(F)F)cc3F)ccc2F)N=C(N)OC[C@@H]1F [Example 12, 3-Fluoro-5-trifluoromethyl-pyridine-2-carboxylic acid [3-((4R,5R)-2-amino-5-fluoro-4-methyl-5,6-dihydro-4H-[1,3]oxazin-4-yl)-4-fluoro-phenyl]-amide] | 4 | – |
| C[C@]1(c2cc(NC(=O)c3ncc(F)cc3F)ccc2F)N=C(N)OC[C@@H]1F [Example 3, 3,5-Difluoro-pyridine-2-carboxylic acid [3-((4R,5R)-2-amino-5-fluoro-4-methyl-5,6-dihydro-4H-[1,3]oxazin-4-yl)-4-fluoro-phenyl]-amide] | 1 | 7 |
| C[C@]1(c2cc(NC(=O)c3cnc(OCC(F)F)cn3)ccc2F)N=C(N)OC[C@@H]1F [Example 19, 5-(2,2-Difluoro-ethoxy)-pyrazine-2-carboxylic acid [3-((4R,5R)-2-amino-5-fluoro-4-methyl-5,6-dihydro-4H-[1,3]oxazin-4-yl)-4-fluoro-phenyl]-amide] | 8 | – |
| C[C@]1(F)COC(N)=N[C@]1(C)c1cc(NC(=O)c2nn(C(F)F)cc2Cl)ccc1F [Example 40, 4-Chloro-1-difluoromethyl-1H-pyrazole-3-carboxylic acid [3-((4R,5R)-2-amino-5-fluoro-4,5-dimethyl-5,6-dihydro-4H-[1,3]oxazin-4-yl)-4-fluoro-phenyl]amide] | 2 | 31 |
| Cn1nc(C(F)(F)F)cc1C(=O)Nc1ccc(F)c([C@@]2(C)N=C(N)OC[C@@H]2F)c1 [Example 27, 2-Methyl-5-trifluoromethyl-2H-pyrazole-3-carboxylic acid [3-((4R,5R)-2-amino-5-fluoro-4-methyl-5,6-dihydro-4H-[1,3]oxazin-4-yl)-4-fluoro-phenyl]-amide] | 90 | 709 |
| C[C@]1(c2cc(NC(=O)c3cncs3)ccc2F)N=C(N)OC[C@@H]1F [Example 29, Thiazole-5-carboxylic acid [3-((4R,5R)-2-amino-5-fluoro-4-methyl-5,6-dihydro-4H-[1,3]oxazin-4-yl)-4-fluoro-phenyl]-amide] | 250 | – |
| C[C@]1(c2cc(NC(=O)c3ccc(Cl)cn3)ccc2F)N=C(N)OC[C@@H]1F [Example 1, 5-Chloro-pyridine-2-carboxylic acid [3-((4R,5R)-2-amino-5-fluoro-4-methyl-5,6-dihydro-4H-[1,3]oxazin-4-yl)-4-fluoro-phenyl]-amide] | 0.4 | 1 |
| C[C@]1(c2cc(NC(=O)c3cnc(C(F)F)cn3)ccc2F)N=C(N)OC[C@@H]1F [Example 15, 5-Difluoromethyl-pyrazine-2-carboxylic acid [3-((4R,5R)-2-amino-5-fluoro-4-methyl-5,6-dihydro-4H-[1,3]oxazin-4-yl)-4-fluoro-phenyl]-amide] | 5 | 23 |
| C[C@]1(F)COC(N)=N[C@]1(C)c1cc(NC(=O)c2nn(CC(F)F)cc2Cl)ccc1F [Example 43, 4-Chloro-1-(2,2-difluoro-ethyl)-1H-pyrazole-3-carboxylic acid [3-((4R,5R)-2-amino-5-fluoro-4,5-dimethyl-5,6-dihydro-4H-[1,3]oxazin-4-yl)-4-fluoro-phenyl]amide] | 183 | 110 |
| C[C@]1(c2cc(NC(=O)c3ccc(OCC4CC4)cn3)ccc2F)N=C(N)OC[C@@H]1F [Example 23, 5-Cyclopropylmethoxy-pyridine-2-carboxylic acid [3-((4R,5R)-2-amino-5-fluoro-4-methyl-5,6-dihydro-4H-[1,3]oxazin-4-yl)-4-fluoro-phenyl]-amide] | 15 | – |
| C[C@]1(c2cc(NC(=O)c3ccc(Cl)cn3)ccc2F)N=C(N)OC[C@H]1F [Example 34, 5-Chloro-pyridine-2-carboxylic acid [3-((4R,5S)-2-amino-5-fluoro-4-methyl-5,6-dihydro-4H-[1,3]oxazin-4-yl)-4-fluoro-phenyl]-amide] | 42 | – |
| C[C@]1(c2cc(NC(=O)C3(C#N)CC3)ccc2F)N=C(N)OC[C@@H]1F [Example 31, 1-Cyano-cyclopropanecarboxylic acid [3-((4R,5R)-2-amino-5-fluoro-4-methyl-5,6-dihydro-4H-[1,3]oxazin-4-yl)-4-fluoro-phenyl]-amide] | 75 | – |
| C[C@]1(c2cc(NC(=O)c3ccc(OCC(F)F)cn3)ccc2F)N=C(N)OC[C@@H]1F [Example 21, 5-(2,2-Difluoro-ethoxy)-pyridine-2-carboxylic acid [3-((4R,5R)-2-amino-5-fluoro-4-methyl-5,6-dihydro-4H-[1,3]oxazin-4-yl)-4-fluoro-phenyl]-amide] | 13 | – |
| C[C@]1(c2cc(NC(=O)c3cnc(OCF)cn3)ccc2F)N=C(N)OC[C@@H]1F [Example 10, 5-Fluoromethoxy-pyrazine-2-carboxylic acid [3-((4R,5R)-2-amino-5-fluoro-4-methyl-5,6-dihydro-4H-[1,3]oxazin-4-yl)-4-fluoro-phenyl]-amide] | 24 | – |
| C[C@]1(c2cc(NC(=O)c3ccc(OCC(F)(F)C(F)F)cn3)ccc2F)N=C(N)OC[C@@H]1F [Example 24, 5-(2,2,3,3-Tetrafluoro-propoxy)-pyridine-2-carboxylic acid [3-((4R,5R)-2-amino-5-fluoro-4-methyl-5,6-dihydro-4H-[1,3]oxazin-4-yl)-4-fluoro-phenyl]-amide] | 17 | – |
| C[C@]1(c2cc(NC(=O)c3ccc(OC(F)F)cn3)ccc2F)N=C(N)OC[C@@H]1F [Example 6, 5-Difluoromethoxy-pyridine-2-carboxylic acid [3-((4R,5R)-2-amino-5-fluoro-4-methyl-5,6-dihydro-4H-[1,3]oxazin-4-yl)-4-fluoro-phenyl]-amide] | 2 | – |
| C[C@]1(c2cc(NC(=O)C3CC3)ccc2F)N=C(N)OC[C@@H]1F [Example 32, Cyclopropanecarboxylic acid [3-((4R,5R)-2-amino-5-fluoro-4-methyl-5,6-dihydro-4H-[1,3]oxazin-4-yl)-4-fluoro-phenyl]-amide] | 730 | – |
| C[C@]1(c2cc(NC(=O)c3ccc(OCC(F)(F)F)cn3)ccc2F)N=C(N)OC[C@@H]1OCC(F)(F)F [Example 49, 5-(2,2,2-Trifluoro-ethoxy)-pyridine-2-carboxylic acid {3-[(4R,5R)-2-amino-4-methyl-5-(2,2,2-trifluoro-ethoxy)-5,6-dihydro-4H-[1,3]oxazin-4-yl]-4-fluoro-phenyl}-amide] | 21 | – |
| Cc1cc(C(=O)Nc2ccc(F)c([C@@]3(C)N=C(N)OC[C@@H]3F)c2)nn1C [Example 30, 1,5-Dimethyl-1H-pyrazole-3-carboxylic acid [3-((4R,5R)-2-amino-5-fluoro-4-methyl-5,6-dihydro-4H-[1,3]oxazin-4-yl)-4-fluoro-phenyl]-amide] | 760 | – |
| C[C@]1(c2cc(NC(=O)c3ccc(OCC(F)(F)C(F)(F)F)cn3)ccc2F)N=C(N)OC[C@@H]1F [Example 25, 5-(2,2,3,3,3-Pentafluoro-propoxy)-pyridine-2-carboxylic acid [3-((4R,5R)-2-amino-5-fluoro-4-methyl-5,6-dihydro-4H-[1,3]oxazin-4-yl)-4-fluoro-phenyl]-amide] | 52 | – |

Reference: patent US8754075B2, “1,3-oxazines as BACE1 and/or BACE2 inhibitors” (Hoffmann-La Roche Inc., priority 2011, dated 2014)
